Where two headings read alike, the source gives them in different places.
How the values were obtained:
[1] = Single oral dose pharmacokinetic study of EG in healthy Egyptian volunteers (LC-MS/MS of plasma); type: in vivo, human; conditions: one JARDIANCE tablet 25 mg EG; for Cmax, Mean ± S.D. (% C.V.): n=6, fasting, single oral dose
Procedure: Each EG calibrator and quality control (QC) plasma sample (980 µL) was spiked with 20 µL containing the appropriate amount of EG in acetonitrile prepared with dilution of EG working solution. All samples including the volunteers’ plasma samples (1 mL plasma) were spiked with 100 µL of IS that contained 100 ng of DG followed by vortexing for 20 sec. Five milliliters of TBME were added, vortexed for 1 min, and centrifuged for 30 min at 6000 rpm. Four milliliters of the organic layer were vacuum evaporated until dryness at 60 °C. Three hundred microliters of acetonitrile were added to reconstitute the resulting residue and vortexed for 3 min. Ten microliters of the reconstituted solution were injected into the LC-MS/MS system.
The pharmacokinetic parameters of EG were studied in healthy human subjects according to the ethical regulations of World Medical Association Declaration of Helsinki (October 1996) and the International Conference of Harmonization Tripartite Guideline for Good Clinical Practice. Written informed consent was provided by each volunteer before enrollment. Approval of the study by the ethical committee was mandatory according to the Egyptian ministry of Health and The British University in Egypt research ethics guidelines. The experimental protocols were approved by the ethics committee of the Faculty of Pharmacy, The British University in Egypt. The clinical trial protocol was registered in a publically accessible primary register that participates in the WHO International Clinical Trial Registry Platform (ClinicalTrials.gov, 16/02/2017, ID: NCT03059056). Good health of the human subjects was confirmed with a complete medical history and physical examination. Fasting of all volunteers eliminated the possible interaction from high fat meals. The evaluation of safety of the study was based on monitoring of blood glucose level, vital signs, pulse rate, monitoring of adverse events, and physical examination. Samples from 6 healthy, adult, male, Egyptian volunteers (age: 22–33 years, average weight: 77.8 kg, average body mass index (BMI): 29.2) were collected at 0, 0.5, 1, 1.5, 2, 3, 4, 8 and 12 hrs, transferred to heparinized centrifuge tubes and analyzed with the proposed method after single oral dose administration of one JARDIANCE tablet nominally containing 25 mg EG. Blood samples (3 mL of each sample) were centrifuged at 3000 rpm for 5 min, 1 mL of the plasma was separated and spiked with 100 µL (equivalent to 100 ng) of IS working solution, and then the procedure discussed under (Sample preparation) was applied. The main pharmacokinetic parameters of the study, Cmax, Tmax, t1/2, elimination rate constant, AUC0-t and AUC0-inf, were estimated using validated Excel software. Blood glucose level was determined for all volunteers at 0 and 1.5 hrs to monitor any hypoglycemic effect. The study was conducted as per FDA guidelines.

[2] = Monitoring of blood glucose level of volunteers (hypoglycemic effect); type: in vivo, human; conditions: healthy Egyptian volunteers, 25 mg EG single oral dose, determined at 0 and 1.5 hrs
Description: The pharmacokinetic parameters of EG were studied in healthy human subjects according to the ethical regulations of World Medical Association Declaration of Helsinki (October 1996) and the International Conference of Harmonization Tripartite Guideline for Good Clinical Practice. Written informed consent was provided by each volunteer before enrollment. Approval of the study by the ethical committee was mandatory according to the Egyptian ministry of Health and The British University in Egypt research ethics guidelines. The experimental protocols were approved by the ethics committee of the Faculty of Pharmacy, The British University in Egypt. The clinical trial protocol was registered in a publically accessible primary register that participates in the WHO International Clinical Trial Registry Platform (ClinicalTrials.gov, 16/02/2017, ID: NCT03059056). […] Samples from 6 healthy, adult, male, Egyptian volunteers (age: 22–33 years, average weight: 77.8 kg, average body mass index (BMI): 29.2) were collected at 0, 0.5, 1, 1.5, 2, 3, 4, 8 and 12 hrs, transferred to heparinized centrifuge tubes and analyzed with the proposed method after single oral dose administration of one JARDIANCE tablet nominally containing 25 mg EG. […] Blood glucose level was determined for all volunteers at 0 and 1.5 hrs to monitor any hypoglycemic effect. […]

[3] = white German subjects, cited from earlier work
[4] = set-up: method as in PMID 25199997; conditions: Japanese subjects, Group 1, n=8, 25 mg empagliflozin; cited from earlier work
[5] = set-up: method as in PMID 26101175; conditions: Chinese subjects, Group 2, n=9, 25 mg empagliflozin; cited from earlier work
[6] = set-up: method as in PMID 23859534; conditions: glucuronidation is the major metabolic pathway; cited from earlier work

## OC[C@H]1O[C@@H](c2ccc(Cl)c(Cc3ccc(O[C@H]4CCOC4)cc3)c2)[C@H](O)[C@@H](O)[C@@H]1O [Empagliflozin]
[1]; male, human, plasma, n=6, single oral dose, read-out: Elimination rate constant, Mean ± S.D. (% C.V.) (converted)
  k el: 2.78e-05 s⁻¹
[1]; male, human, plasma, n=6, single oral dose, read-out: t 1/2, Mean ± S.D. (% C.V.) (converted)
  half-life: 6.1 ± 1.2 h
[1]; plasma
  Cmax, Mean ± S.D. (% C.V.): 576 ± 86 (14.93) nMol/L
[1]; plasma, listed as empagliflozin
  Cmax, Mean ± S.D. (% C.V.): 576 nmol/L
[1]; n=6, single oral dose
  AUC0-inf, Mean ± S.D. (% C.V.): 4103 ± 427 (10.41) nMol.h/L
[1]; n=6, single oral dose, 0-12 h
  AUC0−t (12), Mean ± S.D. (% C.V.): 2806 ± 234 (8.34) nMol.h/L
[1]; n=6, single oral dose, listed as empagliflozin
  AUC0-inf, Mean ± S.D. (% C.V.): 4103 nmol·h/L
[2]
  blood glucose level of all volunteers: in the normal range
[3]; Group 1, n=6, 25 mg EG
  AUC0-inf, Mean: 3.83 µM·h
  Cmax, Mean: 505 nM
[3]; Group 2, n=18, 25 mg EG
  AUC0-inf, Mean: 4.77 µM·h
  Cmax, Mean: 610 nM
[3]; Group 3, n=9, 25 mg EG
  AUC0-inf, Mean: 4.31 µM·h
  Cmax, Mean: 606 nM
[3]; Group 4, n=9, 25 mg EG
  AUC0-inf, Mean: 4.99 µM·h
  Cmax, Mean: 630 nM
[4]
  AUC0-inf, Mean: 7.56 µM·h
  Cmax, Mean: 1070 nM
[5]
  AUC0-inf, Mean: 7.45 µM·h
  Cmax, Mean: 1130 nM
[6]
  metabolites detected in human plasma: no major metabolites

From publication PMC5451423, “Pharmacokinetic Evaluation of Empagliflozin in Healthy Egyptian Volunteers Using LC-MS/MS and Comparison with Other Ethnic Populations” (Scientific Reports, 2017)
